According to patent publication US11911467B2, “Composition comprising PIC for treatment of cancer” (Yisheng Biopharma (Singapore) PTE LTD, priority 2016, dated 2024):
Values joined by “and” are separate entries in the source; they are usually repeats but may differ in a detail not shown here. Equal entries are not always repeated. Values belong to the compound of their own block, whether it stands above or below them.

Tests used:
S180 tumor = test system: S180 tumor; set-up: species or system female Balb/c mice; settings: mouse, in vivo
[1] = test system: Ehrlich Ascites Cancer (EAC) tumor; set-up: species or system female Kunming mice; settings: mouse, in vivo
[2] = test system: LL/2 murine Lewis lung tumor
4T1 murine breast tumor = 4T1 murine breast tumor model (Example 3); assay type: in vivo, female Balb/c mice
Protocol: 1.1 Female Balb/c mice (6 weeks old, body weight 17.2±0.1 g) were obtained from Shanghai SIPPR-BK Laboratory Animal Co. Ltd.
The murine breast cancer cancer cell line 4T1 was obtained from American Type Culture Collection (ATCC), and maintained by HD Biosciences. Cells were maintained in DMEM with 10% fetal bovine serum in a atmosphere of 5% CO2 at 37° C. Passaging ratio was between 1:5 and 1:8, at the frequency of 3 to 4 times per week.
4T1 murine breast tumor model was established in female Balb/c mice by subcutaneous inoculation with 1×10^6 cells per animal. The rate of tumor formation was 100%. Three days post cell inoculation, the cell inoculated mice were randomly sorted into treatment groups by weight. Animals in each group were administered according to Table 2.
There were 4 groups: Vehicle group, Docetaxel group, YS-ON-001 low dose group, and YS-ON-001 high dose group.
2. The Studies were Terminated when the Average Tumor Volume in Vehicle Group Reached 2500 mm^3
3. At the end of study, the tumor mass was removed and photographed. The tumor weight was recorded. The thymus and spleen was removed and weighed. And then, the organ index was calculated.
III. Observational Indices: Same as in Example 2 Section III.
Data were reported as Mean±SEM. Comparison between groups was analysed using ANOVA.

[3] = Cisplatin 5 mg/kg i.v. QW, total 3 dosing, end of study
[4] = Docetaxel 10 mg/kg i.v. QW, total 3 dosing, end of study

Structure (SMILES): O=P1(N(CCCl)CCCl)NCCCO1 (centres unmarked) [CTX, Cyclophosphamide]
Tumor growth (tumor volume) compared with saline control group (S180 tumor): significantly inhibited the tumor growth
Tumor weight compared with saline control group (S180 tumor): significantly decreased tumor weight
Day on which all mice were dead [1]: 30 days
Day on which death was first observed [1]: 27 days
Median duration (to death) [1]: 29 days and 34.5 days

Structure (SMILES): N.N.[Cl][Pt][Cl] [Cisplatin]
Relative tumor proliferation rate T/C [2, 3]: 53.04%
Tumor inhibition rate (tumor weight) [2, 3]: 29.46%
Spleen index compared to vehicle group ([2]; mouse, in vivo): trend of reducing which is not significant
Spleen weight compared to vehicle group ([2]; mouse, in vivo): significantly reduced
Thymus weight and thymus index compared to vehicle group ([2]; mouse, in vivo): significantly reduced
Number of lung metastases compared with vehicle group (B16F10 metastasis tumor; day 15, Cisplatin 5 mg/kg i.v. Q4D, YS-ON-001 200 μg/0.2 mL/mice/dose i.m./s.c. BID, p<0.01): significantly decreased
Spleen weight and spleen index compared with vehicle group (B16F10 metastasis tumor; mouse, in vivo): not affected
Thymus weight and thymus index compared with vehicle group (B16F10 metastasis tumor; mouse, in vivo): significantly decreased

Spleen weight compared to vehicle group (4T1 murine breast tumor; end of study, doses of Table 2): significantly reduced
Thymus weight and thymus index compared to vehicle group (4T1 murine breast tumor; end of study, doses of Table 2): significantly reduced
Spleen index compared to vehicle group (4T1 murine breast tumor; end of study, doses of Table 2, YS-ON-001 p<0.01 low dose, p<0.05 high dose): significantly reduced
Structure (SMILES): CC(=O)O[C@@]12CO[C@@H]1C[C@H](O)[C@@]1(C)C(=O)[C@H](O)C3=C(C)[C@@H](OC(=O)[C@H](O)[C@@H](NC(=O)OC(C)(C)C)c4ccccc4)C[C@@](O)([C@@H](OC(=O)c4ccccc4)[C@H]21)C3(C)C [Docetaxel]
Relative tumor proliferation rate T/C (4T1 murine breast tumor; [4]): 50.12%
Tumor inhibition rate (tumor weight) (4T1 murine breast tumor; [4]): 35.55%
Body weight compared to vehicle group (4T1 murine breast tumor; Docetaxel 10 mg/kg, Day 8 and Day 13 to end of study, p<0.01): significantly affected
Body weight change compared to vehicle group (4T1 murine breast tumor; Docetaxel: Day 4 to end, two YS-ON-001 groups: Day 4 and Day 15 to end): significantly reduced
